Laboratory results published in US9732051B2, “Isothiazoline compounds for combating invertebrate pests” (BASF SE, priority 2011, dated 2017).

Key:
Format in all cases: in vivo
Aphis craccivora = assay: Cowpea aphid spray test on potted cowpea plants; settings: assessed after 24, 72 and 120 hours, in comparison with untreated controls
Description: B.2 Cowpea Aphid (Aphis craccivora)
Potted cowpea plants colonized with approximately 100-150 aphids of various stages were sprayed after the pest population had been recorded. Population reduction was assessed after 24, 72, and 120 hours.

Plutella xylostella = assay: Diamond back moth leaf dip test; settings: foliar, recorded 24, 72 and 120 hours after treatment, in comparison with untreated controls
Description: B.3 Diamond Back Moth (Plutella xylostella)
Leaves of Chinese cabbage were dipped in test solution and air-dried. Treated leaves were placed in petri dished lined with moist filter paper. Mortality was recorded 24, 72, and 120 hours after treatment.

Myzus persicae = assay: Green peach aphid systemic test, artificial diet in 96-well plates; settings: 72 h, 3 days, in comparison with untreated controls
Text: B.4 Green Peach Aphid (Myzus persicae)
For evaluating control of green peach aphid (Myzus persicae) through systemic means the test unit consisted of 96-well-microtiter plates containing liquid artificial diet under an artificial membrane.
The compounds were formulated using a solution containing 75% v/v water and 25% v/v DMSO. Different concentrations of formulated compounds were pipetted into the aphid diet, using a custom built pipetter, at two replications.
After application, 5-8 adult aphids were placed on the artificial membrane inside the microtiter plate wells. The aphids were then allowed to suck on the treated aphid diet and incubated at about 23±1° C. and about 50±5% relative humidity for 3 days. Aphid mortality and fecundity was then visually assessed.

Ceratitis capitata = assay: Mediterranean fruitfly microtiter plate diet test, egg and larval mortality; settings: 120 h, 5 days, in comparison with untreated controls
Description: B.5 Mediterranean Fruitfly (Ceratitis capitata)
For evaluating control of Mediterranean fruitfly (Ceratitis capitata) the test unit consisted of microtiter plates containing an insect diet and 50-80 C. capitata eggs.
(§1) The compounds were formulated using a solution containing 75% v/v water and 25% v/v DMSO. Different concentrations of formulated compounds were sprayed onto the insect diet at 5 μl, using a custom built micro atomizer, at two replications.
(§2) After application, microtiter plates were incubated at about 28±1° C. and about 80±5% relative humidity for 5 days. Egg and larval mortality was then visually assessed.

Dichromothrips corbetti = assay: Orchid thrips floral-immersion test; settings: 96 h, after 4 days, in comparison with untreated controls
Description: B.6 Orchid Thrips (Dichromothrips corbetti)
Dichromothrips corbetti adults used for bioassay were obtained from a colony maintained continuously under laboratory conditions. For testing purposes, the test compound was diluted to a concentration of 500 ppm (wt compound: vol diluent) in a 1:1 mixture of acetone:water (vol:vol), plus 0.01% vol/vol Kinetic® surfactant.
Thrips potency of each compound was evaluated by using a floral-immersion technique. Plastic petri dishes were used as test arenas. All petals of individual, intact orchid flowers were dipped into treatment solution and allowed to dry. Treated flowers were placed into individual petri dishes along with 10-15 adult thrips. The petri dishes were then covered with lids. All test arenas were held under continuous light and a temperature of about 28° C. for duration of the assay. After 4 days, the numbers of live thrips were counted on each flower, and along inner walls of each petri dish. The level of thrips mortality was extrapolated from pre-treatment thrips numbers.

Nephotettix virescens = assay: Rice green leafhopper spray test on rice seedlings; settings: after 72 hours, in comparison with untreated controls
Description: B.7 Rice Green Leafhopper (Nephotettix virescens)
Rice seedlings were cleaned and washed 24 hours before spraying. The active compounds were formulated in 50:50 acetone:water (vol:vol), and 0.1% vol/vol surfactant (EL 620) was added. Potted rice seedlings were sprayed with 5 ml test solution, air dried, placed in cages and inoculated with 10 adults. Treated rice plants were kept at about 28-29° C. and relative humidity of about 50-60%. Percent mortality was recorded after 72 hours.

Spodoptera eridania = assay: Southern armyworm spray test on lima bean plants; settings: 96 h, 4 days after treatment, in comparison with untreated controls
Description: B.9 Southern Armyworm (Spodoptera eridania)
(§3) The active compounds were formulated in cyclohexanone as a 10,000 ppm solution supplied in tubes. The tubes were inserted into an automated electrostatic sprayer equipped with an atomizing nozzle and they served as stock solutions for which lower dilutions were made in 50% acetone:50% water (v/v). A nonionic surfactant (Kinetic®) was included in the solution at a volume of 0.01% (v/v).
Lima bean plants (variety Sieva) were grown 2 plants to a pot and selected for treatment at the 1st true leaf stage. Test solutions were sprayed onto the foliage by an automated electrostatic plant sprayer equipped with an atomizing spray nozzle. The plants were dried in the sprayer fume hood and then removed from the sprayer. Each pot was placed into perforated plastic bags with a zip closure. About 10 to 11 armyworm larvae were placed into the bag and the bags zipped closed. Test plants were maintained in a growth room at about 25° C. and about 20-40% relative humidity for 4 days, avoiding direct exposure to fluorescent light (24 hour photoperiod) to prevent trapping of heat inside the bags. Mortality and reduced feeding were assessed 4 days after treatment, compared to untreated control plants.

Megoura viciae = assay: Vetch aphid leaf disk test in 24-well plates; settings: foliar, 120 h, 5 days, in comparison with untreated controls
Description: B.10 Vetch Aphid (Megoura viciae)
For evaluating control of vetch aphid (Megoura viciae) through contact or systemic means the test unit consisted of 24-well-microtiter plates containing broad bean leaf disks.
The compounds were formulated using a solution containing 75% v/v water and 25% v/v DMSO. Different concentrations of formulated compounds were sprayed onto the leaf disks at 2.5 μl, using a custom built micro atomizer, at two replications.
After application, the leaf disks were air-dried and 5-8 adult aphids placed on the leaf disks inside the microtiter plate wells. The aphids were then allowed to suck on the treated leaf disks and incubated at about 23±1° C. and about 50±5% relative humidity for 5 days. Aphid mortality and fecundity was then visually assessed.

Heliothis virescens = assay: Tobacco budworm microtiter plate diet test, egg and larval mortality; settings: 120 h, 5 days, in comparison with untreated controls
Description: B.11 Tobacco Budworm (Heliothis virescens) I
as §1, with “For evaluating control of tobacco budworm (Heliothis virescens) the test unit consisted of 96-well-microtiter plates containing an insect diet and 15-25 H. virescens eggs. The” for “The”, “at 10” for “at 5”
as §2

Anthonomus grandis = assay: Boll weevil microtiter plate diet test, egg and larval mortality; settings: 120 h, 5 days, in comparison with untreated controls
Description: B.12 Boll Weevil (Anthonomus grandis)
For evaluating control of boll weevil (Anthonomusgrandis) the test unit consisted of 24-well-microtiter plates containing an insect diet and 20-30 A. grandis eggs.
The compounds were formulated using a solution containing 75% v/v water and 25% v/v DMSO. Different concentrations of formulated compounds were sprayed onto the insect diet at 20 μl, using a custom built micro atomizer, at two replications.
After application, microtiter plates were incubated at about 23±1° C. and about 50±5% relative humidity for 5 days. Egg and larval mortality was then visually assessed.

[1] = system: Leptinotarsa decemlineata; assay: Colorado potato beetle spray test on eggplant foliage; settings: foliar, 96 h, 4 days after treatment, in comparison with untreated controls
Description: B.13 Colorado Potato Beetle (Leptinotarsa decemlineata)
as §3
Eggplants were grown 2 plants to a pot and were selected for treatment at the 1st true leaf stage. Test solutions were sprayed onto the foliage by an automated electrostatic plant sprayer equipped with an atomizing spray nozzle. The plants were dried in the sprayer fume hood and then removed from the sprayer. The treated foliage was then cut and removed from the pot and placed in a 5-inch Petri dish lined with moistened filter paper. Five beetle larvae were introduced into each Petri dish and the dish was covered by a Petri dish lid. Petri dishes were maintained in a growth room at 25° C. and 20-40% relative humidity for 4 days, avoiding direct exposure to fluorescent light (24 hour photoperiod) to prevent trapping of heat inside the dishes. Mortality and reduced feeding were assessed 4 days after treatment, compared to untreated control plants.

Tetranychus kanzawai = assay: Red spider mite spray test on cowpea beans; settings: after 72 h, in comparison with untreated controls
Description: B.14 Red Spider Mite (Tetranychus kanzawai)
The active compound was dissolved at the desired concentration in a mixture of 1:1 (v/v) distilled water:acetone. A surfactant (Alkamuls® EL 620) was added at the rate of 0.1% (v/v).
Potted cowpea beans of 7-10 days of age were cleaned with tap water and sprayed with 5 ml of the test solution using air driven hand atomizer. The treated plants were allowed to air dry and afterwards inculated with 20 or more mites by clipping a cassava leaf section with known mite population. Treated plants were placed inside a holding room at about 25-27° C. and about 50-60% relatice humidity.
Mortality was determined by counting the live mites 72 HAT. Percent mortality was assessed after 72 h.

Cc1cc(C2=NSC(c3cc(Cl)cc(Cl)c3)(C(F)(F)F)C2)ccc1C(=O)NCC(=O)NCC(F)(F)F (stereo not drawn) [Compound 2-1, 4-[5-(3,5-Dichlorophenyl)-5-trifluoromethyl-4H-isothiazol-3-yl]-2-methyl-N-[2-oxo-2-(2,2,2-trifluoroethylamino)ethyl]benzamide]
≥ 75%: mortality at 500 ppm (Aphis craccivora) | mortality at 500 ppm (Plutella xylostella) | mortality at 2500 ppm (Myzus persicae) | mortality at 2500 ppm (Ceratitis capitata) | mortality at 500 ppm (Dichromothrips corbetti) | mortality at 500 ppm (Nephotettix virescens) | mortality at 1 ppm (Spodoptera eridania) | mortality at 2500 ppm (Megoura viciae) | mortality at 2500 ppm (Heliothis virescens) | mortality at 2500 ppm (Anthonomus grandis) | mortality at 1 ppm [1] | mortality at 500 ppm (Tetranychus kanzawai)

CCNC(=O)N/N=C/c1ccc(C2=NSC(c3cc(Cl)cc(Cl)c3)(C(F)(F)F)C2)cc1C (stereo not drawn) [Compound 1-5, 1-[(E)-[4-[5-(3,5-dichlorophenyl)-5-(trifluoromethyl)-4H-isothiazol-3-yl]-2-methyl-phenyl]methyleneamino]-3-ethyl-urea]
≥ 75%: mortality at 500 ppm (Plutella xylostella) | mortality at 2500 ppm (Myzus persicae) | mortality at 2500 ppm (Ceratitis capitata) | mortality at 500 ppm (Dichromothrips corbetti) | mortality at 1 ppm (Spodoptera eridania) | mortality at 2500 ppm (Megoura viciae) | mortality at 2500 ppm (Heliothis virescens) | mortality at 2500 ppm (Anthonomus grandis)

Cc1cc(C2=NSC(c3cc(Cl)cc(Cl)c3)(C(F)(F)F)C2F)ccc1C(=O)NCC(=O)NCC(F)(F)F (stereo not drawn) [Compound 5-1, 4-[5-(3,5-dichlorophenyl)-4-fluoro-5-(trifluoromethyl)-4H-isothiazol-3-yl]-2-methyl-N-[2-oxo-2-(2,2,2-trifluoroethylamino)ethyl]benzamide]
≥ 75%: mortality at 500 ppm (Plutella xylostella) | mortality at 2500 ppm (Myzus persicae) | mortality at 2500 ppm (Ceratitis capitata) | mortality at 500 ppm (Dichromothrips corbetti) | mortality at 2500 ppm (Megoura viciae) | mortality at 2500 ppm (Heliothis virescens) | mortality at 2500 ppm (Anthonomus grandis) | mortality at 500 ppm (Tetranychus kanzawai)

CCSCC(=O)N(CC)Cc1ccc(C2=NSC(c3cc(Cl)cc(Cl)c3)(C(F)(F)F)C2)cc1C (stereo not drawn) [Compound 3-3, N-[[4-[5-(3,5-Dichlorophenyl)-5-(trifluoromethyl)-4H-isothiazol-3-yl]-2-methyl-phenyl]methyl]-N-ethyl-2-ethylsulfanyl-acetamide]
≥ 75%: mortality at 500 ppm (Plutella xylostella) | mortality at 2500 ppm (Myzus persicae) | mortality at 2500 ppm (Ceratitis capitata) | mortality at 500 ppm (Dichromothrips corbetti) | mortality at 500 ppm (Nephotettix virescens) | mortality at 1 ppm (Spodoptera eridania) | mortality at 2500 ppm (Heliothis virescens) | mortality at 2500 ppm (Anthonomus grandis)
